Columns and labels:
[1] = tested on: slow currents from large diameter DRG neurons; experiment: slow currents of large diameter DRG neurons; type: cell-based, rat; details: relative to sdDRGNs
Excerpt: The K^+ currents affected by the identified compounds, recorded from sdDRGNs (and sdTGNs) by whole-cell voltage-clamp techniques, were object of intensive research by the applicant in the area of pain neurophysiology. The use of rat pain models was fundamental to perform previous target validation, i.e., to determine the K^+ current component differentially expressed in pain conditions. […] The nature of the recorded modulatory effect on the currents was studied by monitoring several biophysical parameters, such as voltage dependencies of activation and inactivation and kinetics. The specificity of the bioactivity was carried out by comparing the pharmacological effect on currents recorded from the sdDRGNs with those in other types of dorsal root ganglia (medium and large diameter DGRs).
Lastly, regarding specificity, it is important to note that the slow currents obtained from large diameter DRG neurons are around 10 times less sensitive to nitenin.

[2] = tested on: K+ currents of small diameter trigeminal ganglion neurons (sdTGNs); experiment: whole-cell voltage-clamp of K+ currents in sdTGNs; type: cell-based, rat
Description: The nitenin analogue compounds of the present application were first obtained from the marine sponge Spongia agaracina captured in Sagres, Portugal, but have also been chemically synthesized.
(§1) For the electrophysiological recordings of the ex vivo material, voltage-clamp recordings were performed on neurons isolated from rat DRGs (and TGs). Recordings were performed from the soma that often contained the proximal fraction of axon, 1 hour after the end of the cell isolation process (includes enzymatic and mechanical treatment).

[3] = tested on: voltage-activated Na+ currents of sdDRGns; experiment: whole-cell voltage-clamp of voltage activated Na+ currents in sdDRGns; type: cell-based, rat; details: 0.1 μg/ml, 0.29 μM (FIG. 1.b)
Description: FIG. 1 illustrates the effect of nitenin (0.1 μg/ml) on voltage activated currents recorded from small diameter Dorsal Root Ganglia neurons (sdDRGns) • a) In sdDRGns, voltage-activated outward potassium (K^+) currents were evoked by a depolarizing step to +20 mV (holding potential of −70 mV) preceded by a hyperpolarizing pre-pulse to −120 mV. […] Typical voltage activated K^+ current traces recorded before and in the presence of nitenin (0.1 μg/ml); lower trace corresponding to the current subtraction, fit with a single-exponential function (time constant τ˜150 ms). ii.
as §1

[4] = tested on: Naïve Wistar control rats; experiment: naive Wistar controls, von Frey filaments; type: in vivo, rat; details: I.V. injections
Description: […]
(§2) For efficacy studies, nociception was assessed in all animals from all pain models by regular behavioural monitoring, by quantifying the sensitivity to mechanical stimuli with Von Frey filaments, and consequently reflecting hyperalgesia when hypersensitive. […] Intraperitoneal administration was tested in CFA rats (23 days after CFA injection), with 10 times the nitenin quantity administered by I.V. injections. […] Oral administration of nitenin through stomach gavages (endogastric), with 100 times the quantity administered by I.V. injections, was tested in CCI rats (31 days after surgery). […]

STZ rats = experiment: diabetic neuropathic pain rat model STZ, von Frey filaments; type: in vivo; details: I.V. 1 μg/mL of blood; 60 days after STZ
Description: […]
as §2

## C/C(=C\C1C/C(=C/CCc2ccoc2)C(=O)O1)CCCc1ccoc1 (stereo not drawn) [nitenin]
[1]
  lower sensitivity of slow currents of large diameter DRG neurons: around 10 times
[2]
  effect on K+ currents from sdTGNs: inhibited the K^+ currents
[3]
  effect on voltage activated Na+ currents: absence of effect
[3]; listed as Nitenin
  effect on voltage activated Na+ currents: not being able to induce relevant changes
[4]
  sensitivity scores, both paws: never any change in sensitivity scores
STZ rats
  mechanical sensitivity in the hypersensitive paws: decrease of mechanical sensitivity

— patent publication US12336977B2, “Nitenin analogue compounds and their use in the treatment of chronic and acute pain” (SEA4US-BIOTECNOLOGIA E RECURSOS MARINHOS, LDA., priority 2019, dated 2025)
